Data on four compounds can be found in EPA's ToxRefDB 2.

A value given as a limit tells only on which side of the number the result lay.

In general, LOAEL refers to the lowest tested level that showed an adverse finding. As a reminder, the NOAEL is the highest dose or exposure tested at which no adverse effect was seen.

Data set [1] has as its system mouse. Conditions: Subchronic oral toxicity in rodents, b6c3f1, Feed, dose end: 13 week, group: systemic.
Data set [2] deals with rat. Conditions: Subchronic oral toxicity in rodents, fischer, Feed, dose end: 13 week, group: systemic.
The test system of data set [3] is rat. Conditions: Carcinogenicity, fischer, Oral, Feed, dose end: 105 week, group: systemic.
For data set [4], the system named is mouse. Conditions: Carcinogenicity, b6c3f1, Oral, Feed, dose end: 105 week, group: systemic.
Data set [5] deals with rat. Conditions: Subchronic oral toxicity in rodents, sprague dawley, Gavage/Intubation, dose end: 90 day, group: systemic.
The subject of data set [6] is rat. Conditions: Prenatal developmental toxicity study, sprague dawley, Oral, Gavage/Intubation, dose end: 17 GD.
The test system of the next data set is rabbit. Conditions: Prenatal developmental toxicity study, new zealand white, Oral, Gavage/Intubation, dose end: 18 GD, group: maternal.
The test system of data set [7] is rat. Conditions: Multigenerational reproductive toxicity study, sprague dawley, Oral, Feed, dose end: 2 generation.
The next data set relates to dog. Conditions: Chronic toxicity; beagle; Oral; Feed; dose end: 12 month; group: systemic; systemic / hematology / anemia / anemia - hemolytic + systemic / hematology / erythrocyte (rbc) count differential / erythrocyte (rbc) + ….
Data set [8] relates to rat. Conditions: Combined chronic toxicity/carcinogenicity, sprague dawley, Oral, Feed, dose end: 31 month, group: systemic.
Data set [9] has as its system mouse. Conditions: Carcinogenicity, cd1, Oral, Feed, dose end: 78 week, group: systemic.
Another data set relates to primate. Conditions: Subchronic oral toxicity in nonrodent, rhesus, Feed, dose end: 6 month, group: systemic, systemic / organ weight / thyroid gland / absolute.
In data set [10] the test system is rat. Conditions: Prenatal developmental toxicity study, sprague dawley, Oral, Gavage/Intubation, dose end: 15 GD.
Where [11] appears, read: systemic / in life observation / body weight / body weight + systemic / in life observation / body weight / body weight gain + systemic / ….
[12] abbreviates: systemic / in life observation / food consumption / food consumption + systemic / organ weight / brain / absolute + systemic / organ weight….
Setting [13] is: systemic / in life observation / body weight / body weight gain.
Setting [14] is: systemic / pathology microscopic / blood / leukemia mononuclear + systemic / pathology microscopic / esophagus / squamous cell papilloma + ….
Where [15] appears, read: systemic / pathology microscopic / mammary gland / fibroadenoma + systemic / pathology microscopic / oral mucosa / squamous cell papilloma….
[16] abbreviates: systemic / pathology microscopic / blood vessel / [other] + systemic / in life observation / clinical signs / [other] + systemic / in life ….
Setting [17] is: systemic / pathology microscopic / stomach / acanthosis + systemic / pathology microscopic / stomach / hyperkeratosis + systemic / clinical ….
Setting [18] is: group: developmental, systemic / in life observation / body weight / fetal weight.
[19] abbreviates: group: maternal, systemic / in life observation / body weight / body weight gain + systemic / in life observation / food consumption / food consumption.
[20] abbreviates: systemic / in life observation / body weight / body weight + systemic / in life observation / clinical signs / soft stools + systemic / in ….
The mark [21] stands for this setting: group: offspring, systemic / organ weight / liver / nos.
Setting [22] is: group: parental, systemic / organ weight / testes / nos.
The mark [23] stands for this setting: group: reproductive, reproductive / reproductive performance / precoital interval / precoital interval.
Setting [24] is: systemic / clinical chemistry / thyroxine (t4) / thyroxine (t4), total.
The mark [25] stands for this setting: systemic / pathology microscopic / liver / adenoma + systemic / pathology microscopic / lung / adenoma + systemic / clinical chemistry / ….
[26] abbreviates: left thyroid + systemic / clinical chemistry / [other] / [other] + systemic / in life ….
Setting [27] is: group: developmental, developmental / developmental malformation / bone / bent + developmental / developmental malformation / bone / incomplete ossification + ….
Where [28] appears, read: group: maternal, reproductive / reproductive performance / postimplantation loss / postimplantation loss + reproductive / reproductive performance / ….

In the case of `OCC(CO)(CBr)CBr` [2,2-Bis(bromomethyl)-1,3-propanediol], the lowest-observed-adverse-effect level (LOAEL) was 500 mg/kg/day in the data set with mouse [1] (setting [11]), 400 mg/kg/day in the data set on rat [2] (setting [11]), more than 430 mg/kg/day with rat [3] (setting [14]) and 80 mg/kg/day with mouse [4] (systemic / pathology microscopic / lung / hyperplasia). In addition, the no observed adverse effect level (NOAEL) was 200 mg/kg/day with mouse [1] (setting [11]), 200 mg/kg/day with rat [2] (setting [11]), not below 430 mg/kg/day in the data set with rat [3] (setting [14]) and 40 mg/kg/day in the data set on mouse [4] (systemic / pathology microscopic / lung / hyperplasia + systemic / pathology microscopic / blood vessel / [other] + systemic / pathology …). For the same compound, the LEL in the data set with mouse [1] (setting [12]) was found to be 100 mg/kg/day; in the data set on rat [2] (setting [13]), 100 mg/kg/day; in the data set on rat [3] (setting [15]), 100 mg/kg/day; with mouse [4] (setting [16]), 35 mg/kg/day. Further, the NEL in the data set with mouse [1] (setting [12]) is less than 100 mg/kg/day; in the data set on rat [2] (setting [13]), less than 100 mg/kg/day; with rat [3] (setting [15]), less than 100 mg/kg/day; in the data set on mouse [4] (setting [16]) it was less than 35 mg/kg/day.
Consider `C1CN(CN2CCOCC2)CCO1` [4,4-Methylenedimorpholine], for which the LOAEL in the data set with rat [5] (systemic / pathology microscopic / stomach / acanthosis + systemic / pathology microscopic / stomach / hyperkeratosis) stood at 50 mg/kg/day. In the data set on rat [5] (setting [17]), the NEL is 15 mg/kg/day and the no-observed-adverse-effect level (NOAEL) was determined as 15 mg/kg/day. Moreover, the LEL in the data set on rat [5] (systemic / pathology microscopic / stomach / acanthosis + systemic / pathology microscopic / stomach / hyperkeratosis + systemic / in life …) was 50 mg/kg/day.
With `CC(C)n1cc2c3c(cccc31)[C@H]1C[C@@H](C(=O)NC3CCCCC3)CN(C)[C@@H]1C2` [Amesergide], in the data set on rat [6] (setting [18]), the LEL turned out to be 30 mg/kg/day, the LOAEL is more than 30 mg/kg/day, the NEL amounted to 10 mg/kg/day and the NOAEL was not below 30 mg/kg/day. Also, in the data set with rat [6] (setting [19]), the LEL was 30 mg/kg/day, the lowest observed adverse effect level (LOAEL) is more than 30 mg/kg/day, the NEL is 10 mg/kg/day and the no observed adverse effect level (NOAEL) is not below 30 mg/kg/day. Also, in the data set on rabbit (setting [20]), the LOAEL was more than 15 mg/kg/day, the NEL came out at 0.2 mg/kg/day and the NOAEL is not below 15 mg/kg/day. Further, the LEL with rabbit (systemic / in life observation / food consumption / food consumption) was 2 mg/kg/day.
In the case of `S=C([S-])NCCNC(=S)[S-].[Mn+2]` [Maneb], the lowest observed adverse effect level (LOAEL) in the data set with rat [7] (group: offspring, developmental / developmental landmark / vaginal opening / vaginal opening) was 106 mg/kg/day; in the data set with rat [7] (group: parental, systemic / organ weight / lung / nos) it was 21.2 mg/kg/day; in the data set on rat [7] (setting [23]) it was more than 106 mg/kg/day; with dog, 33.8 mg/kg/day; in the data set on rat [8] (systemic / pathology microscopic / urinary bladder / dysplasia + systemic / clinical chemistry / [other] / [other] + systemic / clinical …) it was 68.4 mg/kg/day; in the data set on mouse [9] (setting [25]), more than 355 mg/kg/day. The lowest-observed-adverse-effect level (LOAEL) is 15.5 mg/kg/day in the data set on primate (left thyroid), more than 500 mg/kg/day in the data set with rat [10] (setting [27]) and 100 mg/kg/day with rat [10] (setting [28]). In addition, the NOAEL with rat [7] (group: offspring, developmental / developmental landmark / vaginal opening / vaginal opening + systemic / in life observation / body weight / offspring (pup) …) was 25.1 mg/kg/day; in the data set on rat [7] (group: parental, systemic / organ weight / lung / nos + systemic / in life observation / body weight / body weight + systemic / in life observation / body …), 5.3 mg/kg/day; in the data set on rat [7] (setting [23]), not below 106 mg/kg/day; in the data set on dog, 6.36 mg/kg/day; in the data set on rat [8] (systemic / pathology microscopic / urinary bladder / dysplasia + systemic / pathology microscopic / skeletal muscle / sarcoma + systemic / …), 20.4 mg/kg/day; with mouse [9] (setting [25]), not below 355 mg/kg/day. Also, the NOAEL is 5.2 mg/kg/day with primate (setting [26]), not below 500 mg/kg/day in the data set with rat [10] (setting [27]) and 20 mg/kg/day in the data set with rat [10] (setting [28]). Besides, the LEL in the data set on rat [7] (setting [21]) turned out to be 5.8 mg/kg/day; in the data set with rat [7] (setting [22]), 5.3 mg/kg/day; with rat [7] (setting [23]), 106 mg/kg/day; in the data set on dog it was 7.18 mg/kg/day; in the data set on rat [8] (systemic / organ weight / adrenal gland / absolute), 21.8 mg/kg/day; with mouse [9] (setting [24]) it was 10.8 mg/kg/day. In addition, the LEL came out at 15.5 mg/kg/day in the data set with primate (left thyroid), 500 mg/kg/day in the data set with rat [10] (setting [27]) and 100 mg/kg/day in the data set with rat [10] (setting [28]). The NEL in the data set on rat [7] (setting [21]) was less than 5.8 mg/kg/day; with rat [7] (setting [22]), less than 5.3 mg/kg/day; in the data set with rat [7] (setting [23]), 25.1 mg/kg/day; in the data set with dog, 1.71 mg/kg/day; with rat [8] (systemic / organ weight / adrenal gland / absolute + systemic / pathology microscopic / pituitary gland / adenoma + systemic / pathology …), 7.32 mg/kg/day; with mouse [9] (setting [24]) it was less than 10.8 mg/kg/day. Also, the NEL in the data set with primate (setting [26]) amounted to 5.2 mg/kg/day; in the data set on rat [10] (setting [27]) it was 100 mg/kg/day; with rat [10] (setting [28]) it was 20 mg/kg/day.
